According to US9453192B2, “High-acidity vinegar and method for producing the same” (priority 2012, dated 2016):
Like-named read-outs stand apart in the source and are kept apart here.

Assays:
[1] = test system: Acetobacter altoacetigenes MH-24 (FERM BP-491)
From the text: (§1) The present invention relates to a method for producing a high-acidity vinegar having acidity of 10% to 25%, particularly 15% to 25% by brewing, i.e., acetic acid fermentation. In general, the acidity of vinegar means the concentration of acetic acid (w/v %) in the vinegar. The acidity referred to herein means the acetic acid concentration determined by conducting neutralization titration of the sample (vinegar) with phenolphthalein as an indicator and 1N sodium hydroxide aqueous solution in the manner known to persons skilled in the art.
(§2) A culture solution (2.5 L) containing acetic acid (8 w/v %), ethanol (2 v/v %), Acetozym DS+2 (product of FRINGS; 0.15 w/v %), and a variety of additives at given concentrations was introduced into a 5 L-volume jar fermenter. The total nitrogen content of the culture solution was 0.006 w/v %. Cryopreserved Acetobacter altoacetigenes MH-24 (FERM BP-491) was inoculated into the culture solution to start acetic acid fermentation. Submerged fermentation involving aeration stirring was adopted for the fermentation. Fermentation was conducted under the conditions of a temperature at 30° C., a rotative speed of 600 rpm, and an aeration volume of 0.15 vvm.
(§3) After the start of fermentation, 95% ethanol was fed to the fermentation liquid until the acidity (acetic acid concentration: w/v %) of the fermentation liquid exceeded 15% so as to maintain the ethanol concentration in the fermentation liquid at 1.5 to 3 v/v %. At the time point at which the acidity exceeded 15% (approximately 15.5%) and the ethanol concentration reached about 0.5 v/v %, the fermentation liquid was pulled out such that approximately half of the total fermentation liquid volume is remained.
After the portion of the fermentation liquid was pulled out, the above components were added again without discontinuation of aeration and stirring of the remaining fermentation liquid such that the volume of the fermentation liquid was adjusted to 2.5 L and the composition of the fermentation liquid became equivalent to the composition of the original culture solution. Then, fermentation was continued in the above manner. Thereafter the cycle, in which fermentation was conducted until the acidity exceeded 15% (approximately 15.5%), approximately half of the total volume of the fermentation liquid was pulled out and the above components were added again to restart fermentation with decreased acidity, is repeated to conduct semi-continuous fermentation. Seven times repeats of the cycle from the start of fermentation to re-introduction of the components was regarded as one examination. Six examinations were conducted with each different condition of additives. […]

[2] = test system: Acetobacter altoacetigenes MH-24 (FERM BP-491); test: Semi-continuous acetic acid fermentation, culture solution with Acetozym DS+2 and additives (Example 1); type: cell-based; details: for Final acidity: acidity when a portion of the fermentation liquid was pulled out; for Fermentation time: average time of one cycle (2nd to 7th cycles) until acidity exceeded 15%; for Productivity: rate of increase in acidity per hour
From the text: as §1, §2, §3
After the portion of the fermentation liquid was pulled out, the above components were added again without discontinuation of aeration and stirring of the remaining fermentation liquid such that the volume of the fermentation liquid was adjusted to 2.5 L and the composition of the fermentation liquid became equivalent to the composition of the original culture solution. Then, fermentation was continued in the above manner. Thereafter the cycle, in which fermentation was conducted until the acidity exceeded 15% (approximately 15.5%), approximately half of the total volume of the fermentation liquid was pulled out and the above components were added again to restart fermentation with decreased acidity, is repeated to conduct semi-continuous fermentation. Seven times repeats of the cycle from the start of fermentation to re-introduction of the components was regarded as one examination. Six examinations were conducted with each different condition of additives. Table 1 summarizes the average time duration required for one cycle, i.e., from the restart of fermentation to the time point at which the acidity exceeded 15%, (the average time of 2nd to 7th cycles), final acidity (acidity when a portion of the fermentation liquid was pulled out), and productivity (the rate of increase in acidity per hour) with the types and amounts of additives.

[3] = Glutathione 220 μM, 4 cycle repetitions

Structure (SMILES): N[C@@H](CCC(=O)N[C@@H](CS)C(=O)NCC(=O)O)C(=O)O [Glutathione]
- Fermentation time [1, 3]: 51.3 h
- Final acidity [1, 3]: 15.4%
- Productivity ([1]; Glutathione 220 μM, 4 cycle repetitions, rate of increase in acidity per hour): 0.144 %/h
- Effect on productivity ([1]; Glutathione used as additive (220 μM), versus no additive): productivity was significantly improved

Structure (SMILES): N[C@@H](CSSC[C@H](N)C(=O)O)C(=O)O [L-cystine]
- Final acidity ([2]; L-cystine 18 μM): 15.4%
- Fermentation time ([2]; L-cystine 18 μM): 48.9 h
- Productivity ([2]; L-cystine 18 μM): 0.151 %/h
- Final acidity ([2]; L-cystine 45 μM): 15.3%
- Fermentation time ([2]; L-cystine 45 μM): 41.7 h
- Productivity ([2]; L-cystine 45 μM): 0.175 %/h
- Final acidity ([2]; L-cystine 90 μM): 15.3%
- Fermentation time ([2]; L-cystine 90 μM): 37.5 h
- Productivity ([2]; L-cystine 90 μM): 0.195 %/h
- Effect on productivity as compared with Exam 1 (no additive) ([2]; L-cystine alone, 18 μM (Exam 2)): effect of improving productivity was confirmed
